Assay results published in article PMC8272121, “Synthesis and Evaluation of Chalcone-Quinoline Based Molecular Hybrids as Potential Anti-Malarial Agents” (Molecules, 2021).
Converted amounts (≈) assume the structure as drawn.

Experiments:
[1] = test system: P. falciparum NF54 (drug-sensitive strain); experiment: In vitro antiplasmodial assay (parasite lactate dehydrogenase), chloroquine-sensitive NF54 strain; type: cell-based, Plasmodium falciparum; settings: Plasmodium falciparum; sensitive (NF54) strain of P. falciparum; pLDH assay, 48 h; mean of ≥2 independent experiments; read-out: PfNF54 IC50
Experimental: All the synthesized molecular hybrids (6–27) were evaluated for in vitro antiplasmodial activity against the drug-sensitive strain (NF54) of P. falciparum and for cytotoxicity against the Chinese Hamster Ovary (CHO) mammalian cell line using emetine as a reference drug. Aqueous solubility was determined at pH 6.5 (Table 2).
In-vitro anti-plasmodium assay. Compounds were tested using parasite lactate dehydrogenase assay as a marker for parasite survival. The respective stock solutions of CQ diphosphate and test compounds were prepared by dissolving 2 mg/mL in distilled water (for CQ) and 100% DMSO for test compounds. The solutions were then stored at −20 °C, with further dilutions prepared on the day of the experiment. The cultures were synchronized in the ring stage as described previously using 15 mL of 5% (w/v) d-sorbitol in water. Synchronous cultures of PfNF54 (CQS) in the late trophozoite stage were prepared to 2% parasitemia and 2% hematocrit. […] Following incubation, 100 μL of MalStat reagent and 15 μL of resuspended culture were combined, followed by addition of 25 μL of nitro blue tetrazolium chloride (NBT). The plates were kept in the dark for about 10 min to fully develop, and absorbance was measured at 620 nm on a microplate reader. Raw data were exported to Microsoft Excel for dose-response analysis.

[2] = test system: Chinese Hamster Ovary (CHO) mammalian cell line; experiment: Cytotoxicity MTT assay on CHO cells; type: cell-based; settings: for IC50: Cricetulus griseus, CHO, Chinese hamster ovarian cell line, MTT, 48 h; for SI (selectivity index): SI = IC50 (CHO)/IC50 (PfNF54)
Experimental: All the synthesized molecular hybrids (6–27) were evaluated for in vitro antiplasmodial activity against the drug-sensitive strain (NF54) of P. falciparum and for cytotoxicity against the Chinese Hamster Ovary (CHO) mammalian cell line using emetine as a reference drug. Aqueous solubility was determined at pH 6.5 (Table 2). Cytotoxicity assay. […] The reference standard, emetine, was prepared to 2 mg/mL in distilled water while stock solutions of test compounds were prepared to 20 mg/mL in 100% DMSO with the highest concentration of solvent to which the cells were exposed having no measurable effect on the cell viability. The initial concentration of the compounds and control was 100 μg/mL, which was serially diluted in complete medium with 10-fold dilutions to give six concentrations, the lowest being 0.001 μg/mL. Plates were incubated for 48 h with 100 μL of drug and 100 μL of cell suspension in each well and developed afterward by adding 25 μL of sterile MTT (Thermo Fisher Scientific) to each well, followed by 4 h of incubation in the dark. The plates were then centrifuged; the medium was aspirated, and 100 μL of DMSO was added to dissolve crystals before reading the absorbance at 540 nm. Data were analyzed, and the sigmoidal dose-response was derived using GraphPad Prism v 4.0 software (La Jolla). All experiments were performed for at least three independent biological repeats, each with technical triplicates.

[3] = test system: P. falciparum K1 (multi-drug resistant strain); experiment: In vitro antiplasmodial activity against multi-drug resistant K1 strain; type: cell-based; settings: Plasmodium falciparum; multi-drug resistant K1 strain of P. falciparum; read-out: PfK1 IC50
[4] = Aqueous solubility, miniaturized shake flask method (HPLC-DAD); type: physicochemical; settings: aqueous solution, aqueous buffer, thermodynamic from solid, pH 6.5, shake flask 20 h, 25 °C
Experimental: All the synthesized molecular hybrids (6-27) were evaluated for in vitro antiplasmodial activity against the drug-sensitive strain (NF54) of P. falciparum and for cytotoxicity against the Chinese Hamster Ovary (CHO) mammalian cell line using emetine as a reference drug. Aqueous solubility was determined at pH 6.5 (Table 2). Aqueous solubility. Water solubility was analyzed using a miniaturized shake flask method. Ten millimolar stock solutions of each of the compounds were used to prepare calibration standards (10-220 μM) in DMSO. The same 10 mM stock solutions were accurately dispensed in duplicate into 96-well plates, and the DMSO, dried down ([…],90 min, 37 °C). Thereafter, the samples were reconstituted (200 μM) in an aqueous solution and shaken (20 h, 25 °C). The solutions were analyzed by means of HPLC-DAD (Agilent1200 Rapid Resolution HPLC with a diode array detector). Best fit calibration curves were constructed using the calibration standards, which were used to determine the aqueous samples' solubility.

Row | IC50 [1] [nM] | IC50 [3] [nM] | melting point [°C] | solubility at 20 h [4] [µM] | Structure (SMILES) | IC50 [2] [nM] | SI (selectivity index) [2]
1 | 100 | 2970 | – | – | O=C(/C=C/c1ccccc1Br)c1ccc(S(=O)(=O)NCCCNc2ccnc3cc(Cl)ccc23)cc1 [Compound 8, (E)-4-(3-(2-bromophenyl)acryloyl)-N-(3-((7-chloroquinolin-4-yl)amino)propyl)benzenesulfonamide] | 43200 | 435
2 | 100 | 6000 | – | – | O=C(/C=C/c1ccc(Cl)cc1)c1ccc(S(=O)(=O)NCCCNc2ccnc3cc(Cl)ccc23)cc1 [Compound 11, (E)-4-(3-(4-chlorophenyl)acryloyl)-N-(3-((7-chloroquinolin-4-yl)amino)propyl)benzenesulfonamide] | 41200 | 416.2
3 | 110 | 590 | 221 to 223 | – | COc1ccc(/C=C/C(=O)c2ccc(S(=O)(=O)NCCCNc3ccnc4cc(Cl)ccc34)cc2)cc1 [Compound 12, (E)-N-(3-((7-chloroquinolin-4-yl)amino)propyl)-4-(3-(4-methoxyphenyl)acryloyl)benzenesulfonamide] | 43300 | 393.6
4 | 570 | – | 222 to 224 | < 5 | O=C(/C=C/c1ccc(F)cc1)c1ccc(S(=O)(=O)NCCNc2ccnc3cc(Cl)ccc23)cc1 [Compound 24, (E)-N-(2-((7-chloroquinolin-4-yl)amino)ethyl)-4-(3-(4-fluorophenyl)acryloyl)benzenesulfonamide] | 14500 | 25.5
5 | 370 | – | 209 to 211 | 19 (≈ 10 µg/mL) | O=C(/C=C/c1ccccc1Cl)c1ccc(S(=O)(=O)NCCNc2ccnc3cc(Cl)ccc23)cc1 [Compound 25, (E)-4-(3-(2-chlorophenyl)acryloyl)-N-(2-((7-chloroquinolin-4-yl)amino)ethyl)benzenesulfonamide] | 35400 | 95.7
6 | 690 | – | 222 to 224 | 200 (≈ 110 µg/mL) | O=C(/C=C/c1ccc2c(c1)OCO2)c1ccc(S(=O)(=O)NCCCNc2ccnc3cc(Cl)ccc23)cc1 [Compound 26, (E)-4-(3-(benzo[d][1,3]dioxol-5-yl)acryloyl)-N-(3-((7-chloroquinolin-4-yl)amino)propyl)benzenesulfonamide] | 34100 | 49.5
